# Marks after values point to notes of the source that are not given here.
# How the values were obtained:
# [1] = cited from earlier work
# Aqueous solubility = type: physicochemical
# [2] = Nucleation induction time of supersaturated enzalutamide solutions with pre-dissolved polymer (UV dip probe); type: physicochemical; conditions: absence of polymers; initial 70 μg/mL enzalutamide, pH 6.5 phosphate buffer, 37 °C
# Procedure: The average time to detect the onset of crystallization for supersaturated solutions of enzalutamide was determined in phosphate buffer (pH 6.5, 50 mM) containing pre-dissolved polymer using an in situ UV dip probe as described by Mosquera-Giraldo et al.[11]. […] For enzalutamide the absorbance maximum is 237 nm and the baseline wavelength used was 446 nm. […] Next, a methanolic solution of enzalutamide (245 µL, 10 mg/mL) was added to the polymeric solution (35 mL) magnetically stirred at 300 rpm and maintained at 37 °C, leading to an initial enzalutamide concentration of 70 µg/mL. The experiments were performed in triplicate.
compound,measurement,setting,value
CNC(=O)c1ccc(N2C(=S)N(c3ccc(C#N)c(C(F)(F)F)c3)C(=O)C2(C)C)cc1F [Enzalutamide],Aqueous solubility (amorphous solubility),[1]; amorphous solubility of the drug,0.042^a mg/mL
same,Free drug molecularly dissolved,"[1]; when 70 μg/mL enzalutamide is added to buffer, rest is colloidal amorphous aggregates",approximately 42 μg/mL
same,"Supersaturation ratio (S, amorphous solubility/crystalline solubility)",Aqueous solubility,approximately 14.5
same,solubility,Aqueous solubility; crystalline form,2.9 µg/mL
same,Nucleation induction time,[2],~ 15 min
